The text below walks through data of patent publication US20210163451A1, “METHODS AND COMPOSITIONS FOR SUBSTITUTED 2,5-DIKETOPIPERAZINE ANALOGS” (University of Florida Research Foundation, Inc., priority 2018, published 2021).

For assay [1], the system named is radish seedlings. Put plainly: Herbicidal activity in radish seedling assay. Type of assay: in vivo. The conditions noted are these: total seedling length after 7 days on agar, 0 to 2 μM, mean±SD (n=4). The protocol:
Established protocols were followed to quantitate thaxtomin herbicidal activity in radish seedling assay (Jiang, G. et al. Appl Environ Microbiol 2018 84:e00164-18). In brief, serial concentrations (0 to 2 μM) of thaxtomins in DMSO were added into 20 mL of 1.5% warm agar solution with gentle agitation to prepare agar plates. DMSO was included as the negative control. Radish seeds (Burpee) were surface disinfested, pregerminated and selected when the radicle was […] and just emerged from the seed coat. Six radish seedlings were equally located on the surface of each plate with root ends pointed to the same direction. Agar plates were covered, sealed with Parafilm. Seedlings in agar plates grew at room temperature under 14-16 h fluorescent light per day for 7 days, and total seedling lengths were then recorded. The longest and the shorted seedlings would be excluded from the data analysis. Percent inhibition relative to the mean growth response in negative control was then calculated. Dose-response curves were fit to a four-parameter logistic model, and I50 values were determined from these curves.

The subject of assay [2] is TB14, TCB14, TxtA and TxtB. Put plainly: Conversion to thaxtomin A analogues in the reactions of TB14, TCB14, TxtA and TxtB. The conditions noted are these: thaxtomin A analogue product from the listed L-Phe and L-Trp analogues. Type of assay: biochemical.
In assay [3] the test system is TB14, TxtA and TxtB. Put plainly: Conversion to nitro-DKPs in the reactions of TB14, TxtA and TxtB. Type of assay: biochemical. The note with it: nitro-DKP product from the listed L-Phe and L-Trp analogues.

Regarding `CN1C(=O)[C@](O)(Cc2cccc(O)c2)N(C)C(=O)[C@@H]1Cc1c[nH]c2cccc([N+](=O)[O-])c12` [Compound 1, thaxtomin A, reference compound], the IC50 – broadly, the concentration that gives 50% inhibition – in assay [1] was 390 ± 30 nM. Moreover, the Conversion rate % in assay [2] came to 6.84%.

`Cc1ccc(C[C@H]2C(=O)N(C)[C@@H](Cc3c[nH]c4cccc([N+](=O)[O-])c34)C(=O)N2C)cc1` [compound 54] displayed a Conversion rate % in assay [3] of 15.69%.
